Laboratory results from patent US20230197192A1, “SELECTING NEOANTIGENS FOR PERSONALIZED CANCER VACCINE” (AMAZON TECHNOLOGIES, INC., priority 2020, published 2023).
Where a SMILES comes first, the peptide text is derived from it. Where no end group is shown, it is not given here.

assay: Visible dissolution of peptides in DMSO / 0.9% NaCl for pool formulation; assay type: physicochemical; conditions: not given
Description: Groups of peptides are selected and pooled. Up to four (4) pools with not more than (NMT) five (5) peptides in each pool were prepared. Each peptide was dissolved in 5.538% (v/v) DMSO followed by 0.9% NaCl solution, at a concentration of each peptide at 0.4158 mg/mL. Peptides which were visibly dissolved were accepted for that group's pool. Upon successful pooling of all peptides within a group, the pool was filtered through a 0.2 μm Nylon filter. Peptides were shipped in sterile tubes and labeled with Pool name, lot #, components, manufacturing data, quantity/concentration and storage conditions.

Row | Compound | Stability | Solubility
1 | CSCC[C@H](NC(=O)[C@H](CC(C)C)NC(=O)[C@@H](NC(=O)[C@H](CCSC)NC(=O)[C@H](CC(C)C)NC(=O)[C@@H]1CCCN1C(=O)[C@H](C)NC(=O)[C@H](Cc1ccc(O)cc1)NC(=O)[C@@H]1CCCN1C(=O)[C@H](CC(=O)O)NC(=O)CNC(=O)[C@@H](NC(=O)CNC(=O)CNC(=O)[C@H](CC(C)C)NC(=O)CNC(=O)[C@H](CO)NC(=O)[C@H](Cc1ccc(O)cc1)NC(=O)[C@@H]1CCCN1)C(C)C)C(C)C)C(=O)N[C@@H](CS)C(=O)N[C@@H](CCCNC(=N)N)C(=O)N[C@H](C(=O)N[C@@H](CS)C(=O)N[C@@H](CC(C)C)C(=O)N[C@@H](CCC(=O)O)C(=O)N[C@@H](CC(=O)O)C(=O)O)C(C)C [GGGGG.17] (H-PYSGLGGVGDPYAPLMVLMCRVCLED-OH; N-terminus and C-terminus assumed) | Semi | 
2 | RSLTLEPDPIVVPGNVTLSVVG [GGGGG.33] | Clear | 
3 | SSCMGGMNQRPILTIITLED [DDDDD.9] |  | Cloudy

same assay, conditions: Peptide Synthesis Engineering Run Batch for Sample GGGGG; visual appearance of the peptide solution (Clear / Semi Cloudy / Cloudy)

Row | Compound | Visual solubility (appearance of the peptide solution)
4 | CC[C@H](C)[C@H](NC(=O)[C@H](C)NC(=O)CNC(=O)[C@H](CC(C)C)NC(=O)[C@H](CC(C)C)NC(=O)[C@H](CC(=O)O)NC(=O)[C@H](CS)NC(=O)[C@H](CO)NC(=O)[C@H](CCC(=O)O)NC(=O)[C@H](C)NC(=O)[C@@H]1CCCN1C(=O)[C@@H](N)CO)C(=O)N[C@@H](CCC(N)=O)C(=O)N[C@H](C(=O)N[C@@H](CS)C(=O)N[C@H](C(=O)N[C@@H](CCCNC(=N)N)C(=O)N[C@@H](CCCCN)C(=O)N[C@@H](CO)C(=O)N[C@@H](CC(C)C)C(=O)NCC(=O)O)[C@@H](C)CC)[C@@H](C)O [GGGGG.11] (H-SPAESCDLLGAIQTCIRKSLG-OH; N-terminus and C-terminus assumed) | Clear
5 | CC[C@H](C)[C@H](NC(=O)[C@H](CO)NC(=O)[C@H](CC(=O)O)NC(=O)[C@H](CCC(=O)O)NC(=O)[C@H](C)NC(=O)CN)C(=O)N[C@@H](CC(=O)O)C(=O)N[C@@H](CO)C(=O)N1CCC[C@H]1C(=O)N[C@@H](CO)C(=O)N[C@@H](C)C(=O)N[C@@H](CS)C(=O)N1CCC[C@H]1C(=O)N[C@@H](CC(C)C)C(=O)N[C@@H](CO)C(=O)N[C@H](C(=O)NCC(=O)N[C@@H](CS)C(=O)N1CCC[C@H]1C(=O)N[C@@H](C)C(=O)N[C@@H](CC(C)C)C(=O)O)[C@@H](C)O [GGGGG.21] (H-GAEDSIDSPSACPLSTGCPAL-OH; N-terminus and C-terminus assumed) | Clear
6 | CC(C)C[C@H](NC(=O)[C@@H](NC(=O)[C@H](Cc1c[nH]c2ccccc12)NC(=O)[C@H](C)NC(=O)[C@H](C)NC(=O)[C@@H](NC(=O)[C@H](Cc1ccccc1)NC(=O)[C@H](CCCCN)NC(=O)[C@H](C)N)C(C)C)[C@@H](C)O)C(=O)N[C@@H](CCCCN)C(=O)N[C@@H](C)C(=O)N[C@@H](C)C(=O)N[C@@H](C)C(=O)O [GGGGG.51] | Clear
7 | AAIQEKKEI [GGGGG.39] | Clear
8 | APGSSRLA [GGGGG.43] | Clear
9 | ARPPGGSGPLRVLIPDLQL [GGGGG.3] | Clear
10 | FETTTGFDPHSGTPLSDHEAL [GGGGG.7] | Clear
11 | FQSLCQAPPLLKDKVLTALE [GGGGG.8] | Clear
12 | GALPVASPASL [GGGGG.45] | Clear
13 | HLINYQDDAELATHALPELTKLLNDEDPV [GGGGG.14] | Clear
14 | IQSIYGGLPKVPAKPKEPTIPH [GGGGG.23] | Clear
15 | LAPGQPFL [GGGGG.50] | Clear
16 | LDRQHVQHQLLVILKELRK [GGGGG.34] | Clear
17 | LIKPPAHTSAILTVLR [GGGGG.30] | Clear
18 | MSYELKCAQEL [GGGGG.49] | Clear
19 | MSYELKCAQELSQKQDG [GGGGG.31] | Clear
20 | NSLQNQALQTLQERLHEADAT [GGGGG.20] | Clear
21 | PSAPQQEGVASKEKEEV [GGGGG.4] | Clear
22 | QAYNALTL [GGGGG.41] | Clear
23 | RFIGPLPREGSVGSTSDYVSQS [GGGGG.22] | Clear
24 | RPGEDPSLHGIVKEQL [GGGGG.10] | Clear
25 | RVGDLSPKQKEALAKPEA [GGGGG.27] | Clear
26 | RVLIPDLQL [GGGGG.42] | Clear
27 | SAPGSSRLAA [GGGGG.46] | Clear
28 | SAPGSSRLAAV [GGGGG.36] | Clear
29 | SAVMQEEI [GGGGG.38] | Cloudy
30 | SLCQAPPL [GGGGG.48] | Clear
31 | SPRVAPGSAPPWPALRSLLH [GGGGG.1] | Clear
32 | STAPAEATL [GGGGG.44] | Clear

same assay, conditions: Peptide synthesis engineering run batch for sample DDDDD_2020; appearance of the solution

Row | Compound | Solubility
33 | CC(C)C[C@H](NC(=O)[C@@H](NC(=O)[C@H](Cc1c[nH]c2ccccc12)NC(=O)[C@H](C)NC(=O)[C@H](C)NC(=O)[C@@H](NC(=O)[C@H](Cc1ccccc1)NC(=O)[C@H](CCCCN)NC(=O)[C@H](C)N)C(C)C)[C@@H](C)O)C(=O)N[C@@H](CCCCN)C(=O)N[C@@H](C)C(=O)N[C@@H](C)C(=O)N[C@@H](C)C(=O)O [DDDDD.46] | Clear
34 | APPTRLAPPQRPPPPS [DDDDD.22] | Clear
35 | AQSRSSPTL [DDDDD.36] | Clear
36 | ARPEAQSRSSPTLES [DDDDD.12] | Clear
37 | ASSQAGTVTL [DDDDD.38] | Clear
38 | AVVSYVVADMKEMLPRS [DDDDD.25] | Clear
39 | DPRLVIFSGCATRLFEA [DDDDD.11] | Cloudy
40 | DSSIPSAATL [DDDDD.42] | Clear
41 | EAQSRSSPTL [DDDDD.40] | Clear
42 | FEAPGFNTTTA [DDDDD.45] | Clear
43 | FGALHEDANKVIKPTSSNTA [DDDDD.5] | Clear
44 | GQLFPYRARIEIKNKF [DDDDD.27] | Clear
45 | GQRRDRLLTVQALSGL [DDDDD.14] | Clear
46 | KDKIWLRRTKPSKHQYQICLAIDDSSSM [DDDDD.17] | Clear
47 | KNPQMGDPGSLQPKSAETMNNIDRLRME [DDDDD.6] | Clear
48 | KVTNCFSV [DDDDD.33] | Clear
49 | LLGTVDKHSVKVTNCFSVPHN [DDDDD.16] | Clear
50 | LNGSEPTGAYSIKGFFADYEIPN [DDDDD.26] | Clear
51 | LQMLCPQEAPQILSRLEAVR [DDDDD.7] | Clear
52 | MSKPKWPLEDEISKPEVP [DDDDD.3] | Clear
53 | NQPKIGGPLGTGAFEAPGFNTTTATLGF [DDDDD.4] | Clear
54 | NTSALPLVSL [DDDDD.41] | Clear
55 | QELSPEKLKSWGGSLLGPWLSSGLKPLK [DDDDD.18] | Clear
56 | RDILELGGPEEDAASGTISKKD [DDDDD.30] | Clear
57 | RRACGARTL [DDDDD.37] | Clear
58 | RRWRKLYRANSHLFQAKRFN [DDDDD.24] | Clear
59 | SAGENPLEEEE [DDDDD.43] | Clear
60 | SQAGTVTL [DDDDD.31] | Clear

same assay, conditions: Peptide synthesis engineering run batch for sample FFFFF; appearance of the solution

Row | Compound | Solubility
61 | CC(C)C[C@H](NC(=O)[C@H](CS)NC(=O)[C@H](CS)NC(=O)[C@H](CCC(=O)O)NC(=O)[C@H](Cc1c[nH]c2ccccc12)NC(=O)[C@H](Cc1ccccc1)NC(=O)[C@H](CCC(N)=O)NC(=O)[C@H](C)NC(=O)[C@@H](N)CC(C)C)C(=O)O [FFFFF.38] (H-LAQFWECCL-OH; N-terminus and C-terminus assumed) | Cloudy
62 | CC(C)C[C@H](NC(=O)[C@H](CS)NC(=O)[C@H](CS)NC(=O)[C@H](CCC(=O)O)NC(=O)[C@H](Cc1c[nH]c2ccccc12)NC(=O)[C@H](Cc1ccccc1)NC(=O)[C@H](CCC(N)=O)NC(=O)[C@H](C)N)C(=O)O [FFFFF.41] (H-AQFWECCL-OH; N-terminus and C-terminus assumed) | Cloudy
63 | CC(C)C[C@H](NC(=O)[C@@H](NC(=O)[C@H](Cc1c[nH]c2ccccc12)NC(=O)[C@H](C)NC(=O)[C@H](C)NC(=O)[C@@H](NC(=O)[C@H](Cc1ccccc1)NC(=O)[C@H](CCCCN)NC(=O)[C@H](C)N)C(C)C)[C@@H](C)O)C(=O)N[C@@H](CCCCN)C(=O)N[C@@H](C)C(=O)N[C@@H](C)C(=O)N[C@@H](C)C(=O)O [FFFFF.51] | Clear
64 | EDTGQDMLALFLRTNRQAAK [FFFFF.8] | Clear
65 | FLSPGQLLQEPRTSLLIINNT [FFFFF.20] | Cloudy
66 | HKDAVTCVNFSSSGHLLASGSR [FFFFF.29] | Clear
67 | KLESTVGSPKKPLSDLGKLS [FFFFF.22] | Clear
68 | LGIGGLQDL [FFFFF.49] | Clear
69 | LLLQEEEL [FFFFF.42] | Clear
70 | LSPYPEHL [FFFFF.50] | Clear
71 | MILASPRYVDQVTEFLQQKLK [FFFFF.18] | Clear
72 | NSASMKQAL [FFFFF.47] | Clear
73 | NSLTSSVL [FFFFF.45] | Clear
74 | PLNPPASTAFSQEPHSGSPA [FFFFF.24] | Clear
75 | PTLPQPASHFSPPPPPPPLPP [FFFFF.5] | Clear
76 | RNLYISGFSLCFWLVLRRLVT [FFFFF.26] | Cloudy
77 | RSTTKSPGPSRHSKSPASTSSVN [FFFFF.21] | Clear
78 | SLLLQEEEL [FFFFF.39] | Cloudy
